Read-outs that look alike come from different tables or passages of the source.
Legend:
[1] = molecular target: T1, Bovine pancreas α-chymotrypsin (Bos taurus, UniProt P00766, DEL14-15/DEL147-148); assay: Chymotrypsin assay; format: biochemical
T1 construct: purchased Sigma type II; host or cells: bovine pancreas
Method: The chymotrypsin assay was modified from the method of Delmar et al [Anal. Biochem., 99, 316-320 (1979)]. Bovine pancreas α-chymotrypsin (type II, Sigma) was dissolved in 0.001 N HCl at 1 mg/ml and further diluted 1/600 in assay buffer (0.1 M Tris, pH 7.8, containing 0.1 M CaCl2) before use. 20 μl of test compound in DMSO (or DMSO alone), 100 μl of assay buffer and 30 μl of enzyme were added to 96 well plates, mixed and pre-incubated for 30 minutes at ambient temperature. Reaction was initiated by addition of 50 μl of 0.2 mM N-succinyl-Ala-Ala-Pro-Phe-p-nitroanilide (Sigma; 2 mM in DMSO diluted 1/10 in assay buffer before use). The increase in absorbance at 405 nm was monitored for 10 minutes with a Biotek EL340 plate reader.

[2] = molecular target: HCMV protease (Assemblin) (Human cytomegalovirus, UniProt P16753); assay: Enzymatic assay for HCMV protease (assemblin) inhibitors; format: biochemical; settings: pNA substrate, 30 min preincubation
Chain of HCMV protease (Assemblin) (P16753 1-256): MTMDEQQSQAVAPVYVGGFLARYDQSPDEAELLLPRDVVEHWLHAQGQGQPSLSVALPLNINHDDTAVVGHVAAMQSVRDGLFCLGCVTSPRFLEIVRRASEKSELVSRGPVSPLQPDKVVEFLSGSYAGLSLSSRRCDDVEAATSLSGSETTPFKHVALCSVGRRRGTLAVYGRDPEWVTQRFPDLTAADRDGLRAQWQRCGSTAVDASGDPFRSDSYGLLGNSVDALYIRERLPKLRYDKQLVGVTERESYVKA
Method: Assemblin protease activity was determined using a chromogenic para-nitroanilide (pNA) substrate based on the hCMV maturation cleavage site, succinyl-AGVVNA-para-nitroanilide. […] Potential protease inhibitors were dissolved in DMSO and 10 μL were added to the wells of a 96-well plate (Dynatech, Immulon 1). Enzyme was diluted to 4.8 μg/mL in assay buffer (10 mM sodium phosphate, pH 7.4, 150 mM sodium acetate, 0.1% CHAPS, 20% glycerol) and 100 μL were added to each well. Following a 30 minute incubation at room temperature, 50 μL substrate (1 part 20 mM succinyl-AGVVNA-paranitroanilide (SEQID:1) in DMSO plus 9 parts assay buffer) were added, and periodic readings taken in a microplate reader at 405 nm relative to 650 nm. Activities were expressed as milliabsorbance unit (mAU) change per minute. Inhibitor potency was determined by comparison with incubations lacking inhibitor, which under these conditions gave an increase of 0.5-1 mAU/min. No increase was seen when enzyme was omitted. Results [IC50 (μM)] are included in Table 1.
The construction also encoded six additional histidine residues at the amino terminus of the protease. These additional histidine residues provided an affinity ligand by which it was purified using nickel-nitriloacetic acid-agarose (Qiagen).
The purified protease was stored as a 1-3 mg/ml stock solution in 20 mM HEPES buffer, pH 7.4; containing 20% (v/v) glycerol. This stock was diluted with assay buffer to 4.8 μg/ml. A 100 μL aliquot of this solution was used in the enzyme reaction.
A specific substrate was synthesized based on the cleavage specificity of HCMV protease at the “maturation site” of the assembly protein (F. Liu and B. Roizman, J. Virol., 65, 5149 (1991), and A. Welch, et al, J. Virol., 65, 4091 (1991)). The assembly protein maturation site has the sequence . . . AGVVNA*SCRLATA . . .; the substrate used was succinyl-AGVVNA-PNA (SEQID:1) which was prepared by standard peptide synthetic methods such as that described in Bodansky and Bodansky, “The Practice of Peptide Synthesis” (1984), and was stored as a stock solution at 20 mM in dimethyl sulfoxide. This was diluted 10-fold with assay buffer to give a concentration of 2 mM just before use. An aliquot of 50 μL was used in the reaction
An assay Buffer (10 mM sodium phosphate buffer, pH 7.4; 150 mM sodium acetate; 0.1% CHAPS; and 20% (v/v) glycerol) was used to dilute stock solutions of enzyme and substrate.

[3] = tested on: human foreskin fibroblasts; format: cell-based
From the text: (§1) These complimentary assays tested the ability of a compound to inhibit the production of new virus and the toxicity of the compound to the host cells. It was important that both assays be performed simultaneously in order to compare the results directly since, toxicity may indirectly reduce viral yield.
Viral yield was estimated by measuring the amount of a viral antigen produced 4 days post infection with a monoclonal antibody to an abundant “immediate early” viral protein. An enzyme-linked (horseradish peroxidase) secondary antibody specific to the primary (mouse) antibody was used to measure the amount of viral antigen. Test compounds were diluted to 2-times the desired final concentration in DMEM+5% FBS. One hundred microliters of this solution was placed in each well of a 96-well plate. This was performed once for the antiviral 96-well plate and again for a cytotoxicity plate. Two controls were also included for both plates; a no drug control and a no virus control. Ganciclovir was routinely tested in antiviral and cytotoxicity plates as a reference standard because it has known antiviral activity for HCMV. All cells were prepared by harvesting human foreskin fibroblasts, with trypsin and re-suspending at a concentration of 5×10^5 cells per ml in DMEM. Infected cells were prepared by infecting these with HCMV (strain AD169) at a multiplicity of infection=0.2. One hundred microliters of uninfected cells (5×10^4 cells) were added to the appropriate wells of the cytotoxicity plate. In a similar manner 100 μl of infected cells (5×10^4 cells) were added to the appropriate wells of the antiviral plate. […]
In this assay, HCMV replication was monitored by the production of E. coli beta-galactosidase by the engineered virus RC256 [Spaete and Mocarski, Proc. Nat. […] The reaction was stopped with 100 μl 1M CAPS buffer, pH=11.0, per well and the optical density was read at 410 nanometers. Ganciclovir was used as a positive control and the EC50 was determined as described above for the HCMV ELISA. […]

[4] = tested on: human foreskin fibroblasts; format: cell-based; settings: 96 h
From the text: as §1
Viral yield was estimated by measuring the amount of a viral antigen produced 4 days post infection with a monoclonal antibody to an abundant “immediate early” viral protein. An enzyme-linked (horseradish peroxidase) secondary antibody specific to the primary (mouse) antibody was used to measure the amount of viral antigen. Test compounds were diluted to 2-times the desired final concentration in DMEM+5% FBS. One hundred microliters of this solution was placed in each well of a 96-well plate. This was performed once for the antiviral 96-well plate and again for a cytotoxicity plate. Two controls were also included for both plates; a no drug control and a no virus control. Ganciclovir was routinely tested in antiviral and cytotoxicity plates as a reference standard because it has known antiviral activity for HCMV. All cells were prepared by harvesting human foreskin fibroblasts, with trypsin and re-suspending at a concentration of 5×10^5 cells per ml in DMEM. Infected cells were prepared by infecting these with HCMV (strain AD169) at a multiplicity of infection=0.2. […]

IC50 [2] | melting point | SMILES | also measured
7.7 µM | – | O=C(Nc1ccccc1C(=O)C(F)(F)F)c1ccco1 [Example 1, N-[2-(2,2,2-Trifluoro-1-oxoethyl)phenyl]furan-2-carboxamide] | Chymotrypsin % @ Conc. (μM) ([1]; @ 300 μM): 0% @ 300
5.3 µM | – | O=C(CCc1ccccc1)Nc1cc(F)ccc1C(=O)C(F)(F)F [Example 2, N-[5-Fluoro-2-(2,2,2-trifluoro-1-oxoethyl)phenyl]benzenepropanamide] | –
49 µM | – | O=C(CCc1ccccc1)Nc1ccccc1C(=O)C(F)(F)F [Example 4, N-[2-(2,2,2-Trifluoro-1-oxoethyl)phenyl]benzenepropanamide] | –
3.7 µM | – | O=C(Nc1ccccc1C(=O)C(F)(F)F)c1cnccn1 [Example 5, N-[2-(2,2,2-Trifluoro-1-oxoethyl)phenyl]pyrazine-2-carboxamide] | Antiviral Activity TD50 ([3]; 3 days): > 100 µM; Chymotrypsin % @ Conc. (μM) ([1]; @ 300 μM): 0% @ 300
17 µM | – | O=C(Nc1ccccc1C(=O)C(F)(F)F)OCc1ccccc1 [Example 6, Phenylmethyl N-[2-(2,2,2-trifluoro-1-oxoethyl)phenyl]carbamate] | –
– | – | O=C(CCc1ccccc1)Nc1cc([N+](=O)[O-])ccc1C(=O)C(F)(F)F [Example 7, N-[5-Nitro-2-[2,2,2-trifluoro-1-oxoethyl)phenyl]benzenepropanamide] | Antiviral Activity TD50 [4]: > 100 µM
26 µM | – | O=C(Nc1ccccc1C(=O)C(F)(F)F)c1cc2ccccc2s1 [Example 9, N-[2-(2,2,2-Trifluoro-1-oxoethyl)phenyl]-1-benzothiophene-2-carboxamide] | Antiviral Activity TD50 ([3]; 3 days): > 100 µM; Chymotrypsin % @ Conc. (μM) ([1]; @ 100 μM): 48% @ 100
– | – | O=C(Nc1ccccc1C(=O)C(F)(F)F)C(F)(F)F [Example 10, α,α,α-Trifluoro-N-[2-(2,2,2-trifluoro-1-oxoethyl)phenyl]acetamide] | Antiviral Activity TD50 (μM) [4]: >100/>100 μM
8.3 µM | – | O=C(Nc1ccc(I)cc1C(=O)C(F)(F)F)c1ccco1 [Example 13, N-[4-Iodo-2-(2,2,2-trifluoro-1-oxoethyl)phenyl]furan-2-carboxamide] | Antiviral Activity TD50 [3]: > 100 µM
– | 134 to 135 °C | O=C(COc1ccc(Cl)cc1)Nc1ccccc1C(=O)C(F)(F)F [Example 14, N-[2-(2,2,2-Trifluoro-1-oxoethyl)phenyl]4-chlorophenoxyacetamide] | –
– | 188 to 193 °C | O=C(Nc1ccccc1C(=O)C(F)(F)F)c1cc2ccccc2[nH]1 [Example 15, N-[2-(2,2,2-Trifluoro-1-oxoethyl)phenyl]indolyl-2-carboxamide] | –
36 µM | 130 to 132 °C | O=C(Nc1ccccc1C(=O)C(F)(F)F)c1cc2ccccc2o1 [Example 16, N-[2-(2,2,2-Trifluoro-1-oxoethyl)phenyl]benzofuranyl-2-carboxamide] | –
8.5 µM | 131.5 to 132 °C | COc1ccccc1C(=O)Nc1ccccc1C(=O)C(F)(F)C(=O)NC(C)C [Example 17, N-[2-(3-(2-Propylamino)-3-oxo-2,2-difluoro-1-oxopropyl)phenyl]2-methoxyphenylcarboxamide] | –

Reference: patent publication US6673788B2, “Electrophilic ketones for the treatment of herpesvirus infections” (G. D. Searle & Co., priority 1996, dated 2004)
